Reference: patent US20210276967A1 (OSPEDALE SAN RAFFAELE S.R.L., priority 2018, published 2021)
pEC50: −log10 of the molar value.

Tested on: HBV
Assay: HBV inhibition in HepAD38 cells, extracellular HBV DNA by direct qPCR
Format: cell-based, hepatitis B virus
Conditions: Hepatitis B virus; 0.1 μM, HepAD38, 96 hours; read-out: HBV inhibition % (conc μM)
Text: HepAD38 cell line (Ladner et al., Antimicrob Agents Chemother, 1997, 41, 1715-20) was used for HBV inhibition assays. HepAD38 is a subclone, derived from hepatoblastoma cell line HepG2 (ATCC® Number: HB-8065™), that expresses HBV genome under the transcriptional control of a tetracycline-responsive promoter in a TET-OFF system: addition of tetracycline (TET) or doxycycline suppresses HBV replication, while its removal switches on the process allowing HBV viral particles release in the cell supernatant. HepAD38 cell line is maintained in DMEM/F12, supplemented with 10% of fetal bovine serum, 1% of glutamine, 1% of penicillin/streptomycin, 0.4 mg/ml G418 and 0.3 ug/ml tetracycline. For the HBV inhibition assay, doxycycline-free medium is used in order to allow virion production.
HBV inhibition activity in vitro was performed in 96 multiwell plates. During the initial (primary) screening compounds were first tested in triplicates at concentrations of 0.1 μM, 0.5 μM and 1 μM. For selected compounds, an 8-point dose-response curve was obtained using 1:2 serial dilutions (starting from 2.5 μM, 1.25 μM or 0.4 μM, depending on the degree of inhibition observed during the primary screening). From the dose-response curves, half maximal effective concentration (EC50) could be calculated (see also below).
In more detail, compounds—typically dissolved in DMSO stock solutions—were diluted to 2× the final desired concentration in 100 μl of the above medium (without doxycycline) and plated in three replicates in the 96-well plates.
Simultaneously, HepAD38 cells—extensively pre-washed in tetracycline-free medium in order to induce HBV production—were suspended at 2*10^4 cells in 100 μl of tetracycline-free medium and added to each well of the plate, to yield a final assay volume of 200 μl.
DMSO, used for stock solutions and compounds dilutions, is always present in the assays at a final concentration of 0.5%.
Plates were then incubated 96 hours at 37° C. and then subjected to cell viability assays and extracellular HBV quantification, in order to evaluate both the cytotoxic potential and the anti-viral activity of compounds.
Cytotoxicity was assessed by a commercial fluorescence assay that measures the metabolic activity of cells, directly related to cell viability (Cell Titer Blue, Promega). For each compound, cytotoxicity was evaluated at the same concentration employed to evaluate its anti-HBV activity. Anti-HBV activity was evaluated by quantification of extracellular HBV DNA with direct qPCR. In particular, supernatant was collected and centrifuged for cell debris clarification, viral DNA was extracted from virions by addition of lysis buffer (1 mM 1,4-dithiothreitol, 0.2% sodium dodecyl sulphate) and incubated at 95° C. for 10 min. Samples were then diluted 1:40 and real time PCR amplification was performed with SYBR green assay (Power SYBR™ Green PCR Master Mix-Thermo Fisher Scientific) and specific HBV primer (HBV-DF:5′-[…]-3′ (SEQ ID No. 1), HBV-DR:5′-[…]-3′ (SEQ ID No. 2)).
All HBV inhibition or antiviral activity data are typically reported in percent (%) relative to a non-treated reference sample. Excel and Graphpad Prism programs are typically used for data elaboration and EC50 calculation.
`Nc1ncc(C(=O)Nc2cc(F)c(F)c(F)c2)cc1S(=O)(=O)N[C@H]1CC[C@H](O)CC1` [Example E58, trans-6-amino-5-(N-(4-hydroxycyclohexyl)sulfamoyl)-N-(3,4,5-trifluorophenyl)nicotinamide] showed an inhibition at 0.1 µM of under 50%.
For `Cc1cc(N)c(S(=O)(=O)N[C@H](C)C(F)(F)F)cc1C(=O)Nc1cc(F)c(F)c(F)c1` [Example E63, (R)-4-amino-2-methyl-N-(3,4,5-trifluorophenyl)-5-(N-(1,1,1-trifluoropropan-2-yl)sulfamoyl)benzamide], the inhibition at 0.1 µM was over 50%.
For `Cc1cc(N)c(S(N)(=O)=O)cc1C(=O)Nc1cc(F)c(F)c(Cl)c1` [Example E65, 4-amino-N-(3-chloro-4,5-difluorophenyl)-2-methyl-5-sulfamoylbenzamide], the inhibition at 0.1 µM was over 50%.
In the case of `Cc1cc(N)c(S(N)(=O)=O)cc1C(=O)Nc1ccc(F)c(C(F)F)c1` [Example E68, 4-amino-N-(3-(difluoromethyl)-4-fluorophenyl)-2-methyl-5-sulfamoylbenzamide], the inhibition at 0.1 µM was over 50%.

Same assay, conditions: Hepatitis B virus; 0.5 μM, HepAD38, 96 hours; read-out: HBV inhibition % (conc μM)
In the case of `Nc1ccc(C(=O)Nc2cc(F)c(F)c(F)c2)cc1S(=O)(=O)NC1(CO)COC1` [Example E38, 4-amino-3-(N-(3-(hydroxymethyl)oxetan-3-yl)sulfamoyl)-N-(3,4,5-trifluorophenyl)benzamide], the inhibition at 0.5 µM was over 50%.
`Nc1ccc(C(=O)Nc2cc(F)c(F)c(F)c2)cc1S(=O)(=O)NCC1(O)CCCCC1` [Example E39, 4-amino-3-(N-((1-hydroxycyclohexyl)methyl)sulfamoyl)-N-(3,4,5-trifluorophenyl)benzamide] gave an inhibition at 0.5 µM of over 50%.
With `CC(NS(=O)(=O)c1cc(C(=O)Nc2cc(F)c(F)c(F)c2)ccc1N)c1ccccn1` (stereo not shown) [Example E42, 4-amino-3-(N-(1-(pyridin-2-yl)ethyl)sulfamoyl)-N-(3,4,5-trifluorophenyl)benzamide] the inhibition at 0.5 µM was under 50%.
`Nc1ccc(C(=O)Nc2ccc(F)c(Cl)c2)cc1S(=O)(=O)N[C@H]1CC[C@H](O)CC1` [Example E43, trans-4-amino-N-(3-chloro-4-fluorophenyl)-3-(N-(4-hydroxycyclohexyl)sulfamoyl)benzamide] showed an inhibition at 0.5 µM of over 50%.
Molecule `Nc1ccc(C(=O)Nc2ccc(F)c(C(F)F)c2)cc1S(=O)(=O)N[C@H]1CC[C@H](O)CC1` [Example E44, 4-amino-N-(3-(difluoromethyl)-4-fluorophenyl)-3-(N-((1r,4r)-4-hydroxycyclohexyl)sulfamoyl)benzamide] has an inhibition at 0.5 µM of over 50%.
Molecule `Cc1cc(NC(=O)c2ccc(N)c(S(=O)(=O)N[C@H]3CC[C@H](O)CC3)c2)ccc1F` [Example E46] has an inhibition at 0.5 µM of over 50%.
Molecule `Nc1ccc(C(=O)Nc2cc(F)c(F)c(F)c2)cc1S(=O)(=O)N[C@H]1CC[C@@H](O)C1` [Example E47, 4-amino-3-(N-((1S,3R)-3-hydroxycyclopentyl)sulfamoyl)-N-(3,4,5-trifluorophenyl)benzamide] has an inhibition at 0.5 µM of over 50%.
`Nc1ccc(C(=O)Nc2cc(F)c(F)c(F)c2)cc1S(=O)(=O)NC(CO)CO` [Example E48, 4-amino-3-(N-(1,3-dihydroxypropan-2-yl)sulfamoyl)-N-(3,4,5-trifluorophenyl)benzamide] showed an inhibition at 0.5 µM of under 50%.
In the case of `Nc1ccc(C(=O)Nc2cc(F)c(F)c(F)c2)cc1S(=O)(=O)N[C@@H]1CC[C@H](O)C1` [Example E49, 4-amino-3-(N-((1R,3S)-3-hydroxycyclopentyl)sulfamoyl)-N-(3,4,5-trifluorophenyl)benzamide], the inhibition at 0.5 µM was over 50%.
In the case of `Nc1ccc(C(=O)Nc2cc(F)c(F)c(F)c2)cc1S(=O)(=O)N1CCC(O)(CO)CC1` [Example E50, 4-amino-3-((4-hydroxy-4-(hydroxymethyl)piperidin-1-yl)sulfonyl)-N-(3,4,5-trifluorophenyl)benzamide], the inhibition at 0.5 µM was over 50%.
`Nc1ccc(C(=O)Nc2cc(F)c(F)c(F)c2)cc1S(=O)(=O)N1CCC(O)C1` (stereo not shown) [Example E53, 4-amino-3-((3-hydroxypyrrolidin-1-yl)sulfonyl)-N-(3,4,5-trifluorophenyl)benzamide] showed an inhibition at 0.5 µM of over 50%.
With `Nc1ccc(C(=O)Nc2ccc(F)c(Cl)c2)cc1S(=O)(=O)N1CCC(O)CC1` [Example E54, 4-amino-N-(3-chloro-4-fluorophenyl)-3-((4-hydroxypiperidin-1-yl)sulfonyl)benzamide] the inhibition at 0.5 µM was over 50%.
In the case of `Nc1ccc(C(=O)Nc2ccc(F)c(Cl)c2)cc1S(=O)(=O)N1CC(O)C1` [Example E55, 4-amino-N-(3-chloro-4-fluorophenyl)-3-((3-hydroxyazetidin-1-yl)sulfonyl)benzamide], the inhibition at 0.5 µM was over 50%.
For `Nc1ccc(C(=O)Nc2cc(F)c(F)c(F)c2)cc1S(=O)(=O)NCC(O)CO` (stereo not shown) [Example E56, 4-amino-3-(N-(2,3-dihydroxypropyl)sulfamoyl)-N-(3,4,5-trifluorophenyl)benzamide], the inhibition at 0.5 µM was over 50%.
With `Nc1ccc(S(N)(=O)=O)cc1C(=O)Nc1cc(F)c(F)c(F)c1` [Example E59, 2-amino-5-sulfamoyl-N-(3,4,5-trifluorophenyl)benzamide] the inhibition at 0.5 µM was under 50%.
Molecule `Cc1cc(N)c(S(=O)(=O)N[C@@H](C)C(F)(F)F)cc1C(=O)Nc1cc(F)c(F)c(F)c1` [Example E64, (S)-4-amino-2-methyl-N-(3,4,5-trifluorophenyl)-5-(N-(1,1,1-trifluoropropan-2-yl)sulfamoyl)benzamide] has an inhibition at 0.5 µM of over 50%.
Molecule `Cc1cc(N)c(S(N)(=O)=O)cc1C(=O)Nc1ccc(Cl)nc1` [Example E66, 4-amino-N-(6-chloropyridin-3-yl)-2-methyl-5-sulfamoylbenzamide] has an inhibition at 0.5 µM of under 50%.
In the case of `Cc1cc(N)c(S(N)(=O)=O)cc1C(=O)Nc1ccc(F)c(C(F)(F)F)c1` [Example E67, 4-amino-N-(4-fluoro-3-(trifluoromethyl)phenyl)-2-methyl-5-sulfamoylbenzamide], the inhibition at 0.5 µM was over 50%.
`Cc1cc(N)c(S(N)(=O)=O)cc1C(=O)Nc1ccc(F)c(C#N)c1` [Example E69, 4-amino-N-(3-cyano-4-fluorophenyl)-2-methyl-5-sulfamoylbenzamide] gave an inhibition at 0.5 µM of over 50%.

Same assay, conditions: Hepatitis B virus; 1 μM, HepAD38, 96 hours; read-out: HBV inhibition % (conc μM)
For `CC(C)(C)OC(=O)N[C@@H]1CCC[C@@H]1NS(=O)(=O)c1cc(C(=O)Nc2cc(F)c(F)c(F)c2)ccc1N` [Example E51, tert-butyl ((1R,2S)-2-((2-amino-5-((3,4,5-trifluorophenyl)carbamoyl)phenyl)sulfonamido)cyclopentyl)carbamate], the inhibition at 1 µM was over 50%.
With `CC(C)(C)OC(=O)N[C@H]1CCC[C@H]1NS(=O)(=O)c1cc(C(=O)Nc2cc(F)c(F)c(F)c2)ccc1N` [Example E52, tert-butyl ((1S,2R)-2-((2-amino-5-((3,4,5-trifluorophenyl)carbamoyl)phenyl)sulfonamido)cyclopentyl)carbamate] the inhibition at 1 µM was over 50%.

Same assay, conditions: Hepatitis B virus; HepAD38, 8-point dose-response; read-out: HBV inh EC50
Molecule `Cc1cc(N)c(S(N)(=O)=O)cc1C(=O)Nc1ccc(F)c(Cl)c1` [Example E60, 4-amino-N-(3-chloro-4-fluorophenyl)-2-methyl-5-sulfamoylbenzamide] has a pEC50 of over 6.00.
In the case of `Nc1ccc(S(=O)(=O)N[C@H]2CC[C@H](O)CC2)cc1C(=O)Nc1cc(F)c(F)c(F)c1` [Example E61, trans-2-amino-5-(N-(4-hydroxycyclohexyl)sulfamoyl)-N-(3,4,5-trifluorophenyl)benzamide], the pEC50 was over 6.00.
For `Nc1ccc(S(=O)(=O)N2CCC(O)CC2)cc1C(=O)Nc1cc(F)c(F)c(F)c1` [Example E62, 2-amino-5-((4-hydroxypiperidin-1-yl)sulfonyl)-N-(3,4,5-trifluorophenyl)benzamide], the pEC50 was over 6.00.

Same assay, conditions: concentration not given, HepAD38
In the case of `Cc1cc(NC(=O)c2cc(S(N)(=O)=O)c(N)cc2C)ccc1F` [Example E40, 4-amino-N-(4-fluoro-3-methylphenyl)-2-methyl-5-sulfamoylbenzamide], the “HBV inhibition % (conc μM)” value was “A (HBV inhibition greater than 50% at the concentration indicated in the table)”.

Tested on: HBV
Assay: not given
Conditions: Phase 1b clinical studies; cited from earlier work
For `O=C(Nc1cc(F)c(F)c(F)c1)c1ccc(F)c(S(=O)(=O)N2CCC(O)CC2)c1` [NVR3-778], the “reduction in HBV DNA” value is given as “significant reduction” and the “reduction in serum HBV RNA” value is given as “significant reduction”.
